Experimental data reported in publication PMC9800617, “Pharmacokinetics/pharmacodynamics of polymyxin B in patients with bloodstream infection caused by carbapenem-resistant Klebsiella pneumoniae” (Frontiers in Pharmacology, 2022).
Read-outs that look alike come from different tables or passages of the source. Bridge positions count the residues as written; N and C are the ends. Square brackets hold non-standard residues; d marks the D form. Peptide text beside a SMILES is read from it. * marks the point of attachment. X1 = CC[C@H](C)CCCCC(=O)*; Dab = NCC[C@H](N)C(=O)O

Columns and labels:
[1] = cited from earlier work
Protocol: Monte Carlo simulations were conducted for the probability of target attainment (PTA) analysis to guide the selection of optimal dosage regimens. Different dosage regimens were simulated by the PPK model and AUCss,24h were calculated. […] The maximal reductions in colony f ... || FIGURE 4 Probability of target attainment for different dosage regimens of polymyxin B against common carbapenem-resistant organisms according to PK/PD simulations. (A) Loading dose for three bacterial species. […] Or gani s m Dose Dosing MIC (mg/L) (m g/ k g) frequen c y 0.25 0.5 1 2 4 8 2 Loading 100.0 100.0 99.6 40.5 0 0 2.5 dose 100.0 100.0 100.0 71.0 2.0 0 Klebsiella 0.5 100.0 99.7 40.5 0.2 0 0 pneum oniae 0.75 Maintenance 100.0 100.0 90.6 11.0 0 0 1.0 dose, q12h 10 ...

[2] = healthy Chinese subjects, ref Liu et al., 2021, cited from earlier work
From the text: Neurotoxicity is another major dose-limiting factor for the polymyxins, although it often goes unreported given many patients receiving polymyxins are mechanically ventilated which makes assessment difficult. Polymyxin-induced neurotoxicity is very likely dose-dependent and is characterized by symptoms such as dizziness, vertigo, visual disturbances, confusion, hallucinations, seizures, ataxia, facial and peripheral parenthesis, and pruritus ([Falagas and Kasiakou, 2006]; [Weinstein et al., 2009]; [Wahby et al., 2010]; [Honore et al., 2013]). While neurologic side effects such as parenthesis h ...

[3] = cited from earlier work; remark: listed apart in the source
Protocol: Our study is the first to specifically examine patients with BSI using the recommended dosage regimen of polymyxin B (2.5–3.0 mg/kg/d) ([Tsuji et al., 2019]). Previous studies utilizing PPK models to examine polymyxin B PK have included primarily critically ill patients with various medical conditions or patients with cystic fibrosis, and have employed a wide range of doses (0.45–3.38 mg/kg/day) ([Sandri et al., 2013]; [Avedissian et al., 2018]; [Kubin et al., 2018]; [Manchandani et al., 2018]; [Miglis et al., 2018]; [Yu et al., 2021]).

[4] = cited from earlier work; remark: listed apart in the source
From the text: Nephrotoxicity following intravenous administration of polymyxin B may occur in up to ∼30% of patients and constitutes the major dose-limiting factor with polymyxin therapy ([Ouderkirk et al., 2003]; [Sobieszczyk et al., 2004]; [Phe et al., 2014]; [Oliota et al., 2019]). The inability to substantially increase the daily dose of polymyxins may lead to suboptimal dosing which compromises efficacy and increases the likelihood of resistance emerging ([Zavascki et al., 2007]; [Rigatto et al., 2014]). In the present study, no pathological factors affecting renal function were present in any of the p ...

[5] = tested on: carbapenem-resistant K. pneumoniae (CRKP) bloodstream infections; assay: Microbiological and clinical efficacy in CRKP bloodstream infection; assay type: in vivo, human; conditions: for Microbiological efficacy: blood culture; for Clinical efficacy: evaluated when the subject withdrew or completed the study; for 28-day survival: 14 days of treatment
Protocol: This prospective, multi-centered, single-armed and open-label clinical trial was conducted in accordance with Good Clinical Practice, International Conference on Harmonization guidelines, and in compliance with the World Medical Association Declaration of Helsinki and was approved by the Ethics Committee of Sir Run Run Shaw Hospital, College of Medicine, Zhejiang University, Hangzhou, China, and other participating centers ([Williams, 2008]). Written informed consent was obtained from each patient or his/her representative before enrollment. Patients with CRKP-positive blood cultures and with an estimated glomerular filtration rate (eGFR) of 60–120 ml/min were included. The inclusion and exclusion criteria are shown in Supplementary Table S1. This clinical trial was registered at http://www.chictr.org.cn (registration number: ChiCTR 1900021137) and was conducted across 2019 and 2020.
The definition of different population groups for safety and efficacy analysis is shown in Supplementary Table S2. Briefly, safety was evaluated based on adverse events (AEs) in patients who received at least one polymyxin B dose. Adverse events were recorded based on patient self-reporting as well as abnormal laboratory test results including serum chemistry and routine blood and urinary testing. Acute kidney injury (AKI) was graded according to the RIFLE criteria ([Bellomo et al., 2004]). The primary endpoint was culture-confirmed bacterial eradication of CRKP from the blood evaluated by blood cultures taken every 3 days following the first dose of polymyxin B administration. Secondary endpoints were clinical outcome (clinical cure or improvement, Supplementary Table S3) evaluated in patients who received at least 3 days of polymyxin B treatment, and 28-day all-cause mortality evaluated in patients who completed 14 days of polymyxin B treatment.

[6] = healthy subjects, ref Liu et al., 2021

For `CC[C@H](C)CCCCC(=O)N[C@@H](CCN)C(=O)N[C@H](C(=O)N[C@@H](CCN)C(=O)N[C@H]1CCNC(=O)[C@H]([C@@H](C)O)NC(=O)[C@H](CCN)NC(=O)[C@H](CCN)NC(=O)[C@H](CC(C)C)NC(=O)[C@@H](Cc2ccccc2)NC(=O)[C@H](CCN)NC1=O)[C@@H](C)O` [polymyxin B] (X1-[Dab]T[Dab][Dab][Dab][dF]L[Dab][Dab]T; lactam 4-C), the “unbound fraction in plasma” value ([1]; as used in PK/PD simulations, given as fraction) is listed as 0.42, the “unbound fraction (f) in human plasma” value ([1]; human plasma, ref Sandri et al., 2013) is listed as 42% and the “subjects with perioral paraesthesia, dizziness, and numbness of extremities” value ([2]; single dose 0.75 mg/kg, 1-h infusion, 7 of 10) is listed as 70%. The “subjects with perioral paraesthesia, dizziness, and numbness of extremities” value ([2]; single dose 1.5 mg/kg, 1.5-h infusion) was “all subjects”, the clearance [3, 6] was 0.026 ± 0.004 L/h/kg and the half-life [3, 6] was 5.55 ± 0.942 h. For the same compound, the volume of distribution [3, 6] was 0.204 ± 0.026 L/kg, the “dose excreted unchanged in the urine” value ([3]; ref Zavascki et al., 2008) was ≤ 4% and the “incidence of nephrotoxicity reported previously” value ([4]; ref Oliota et al., 2019) was 29.8%. The “incidence of polymyxin B-associated nephrotoxicity (RIFLE criteria)” value ([4]; ref Phe et al., 2014) was 23.1%, the “patients with nephrotoxicity following intravenous administration” value ([4]; up to, ref Ouderkirk et al., 2003, Sobieszczyk et al., 2004, Phe et al., 2014, Oliota et al., 2019) was ~30% and the “patients alive 28 days after the commencement of therapy” value ([5]; 4 patients who completed the 14-day treatment protocol) was “all 4”. The “clinical cure or improvement” value ([5]; 6/8 patients) was 75%, the “time to negative blood cultures after commencing therapy” value ([5]; all 8 patients evaluated for microbiological efficacy) was ≤ 3 days and the Microbiological efficacy ([5]; patient 1) was “Eradication”. For the same compound, the Clinical efficacy ([5]; patient 1) was “Not improved”, the Microbiological efficacy ([5]; patient 2) was “Eradication” and the Clinical efficacy ([5]; patient 2) was “Improved”. The 28-day survival ([5]; patient 3) was “Yes”, the Microbiological efficacy ([5]; patient 3) was “Eradication” and the Clinical efficacy ([5]; patient 3) was “Cure”. The Microbiological efficacy ([5]; patient 5) was “Eradication”, the Clinical efficacy ([5]; patient 5) was “Improved” and the 28-day survival ([5]; patient 6) was “Yes”. For the same compound, the Microbiological efficacy ([5]; patient 6) was “Eradication”, the Clinical efficacy ([5]; patient 6) was “Cure” and the 28-day survival ([5]; patient 7) was “Yes”. For the same compound, the Microbiological efficacy ([5]; patient 7) was “Eradication”, the Clinical efficacy ([5]; patient 7) was “Cure” and the Microbiological efficacy ([5]; patient 8) was “Eradication”. For the same compound, the Clinical efficacy ([5]; patient 8) was “Improved”, the 28-day survival ([5]; patient 9) was “Yes” and the Microbiological efficacy ([5]; patient 9) was “Eradication”. The Clinical efficacy ([5]; patient 9) was “Failure” and the “clinical cure or improvement” value ([5]; patients evaluated for efficacy (n = 8)) was 6 of 8.
